Like-named read-outs stand apart in the source and are kept apart here.
Legend:
C57BL/6J mice [1] = conditions: range over Table 1 and earlier studies; ref Glatfelter et al. [2022b], Sherwood et al. [2020]; cited from earlier work
C57BL/6J mice [2] = assay: Locomotor activity (distance traveled) in mice; assay type: in vivo, mouse; conditions: for Locomotor Activity (cm) Mean: 30 min
Description: (§1) At 1–2 weeks prior to the beginning of experiments, mice were habituated to handling and receiving s.c. saline injections. On the day of an experiment, mice were acclimated to the testing room in their home cage for at least 30 min prior to the start of sessions. Prior to each session, mice were weighed, and resting body temperatures were recorded. Mice were then placed into experimental chambers for acclimation. Behavioral testing was carried out in TruScan mouse locomotor arenas equipped with photobeam arrays (Coulbourn Instruments, Holliston, MA, USA) that were modified with cylindrical inserts and transparent flooring to aid in semi-automated HTR detection as previously described (Glatfelter et al. [2022a]). After 5 min of acclimation, basal body temperature was recorded followed by s.c. injection of drug or vehicle, and mice were returned to test chambers for 30 min. Dose ranges for each drug were 0.03–10 mg/kg for DOI, 0.03–10 mg/kg for psilocybin, and 0.003–1 mg/kg for LSD. Mice were randomly assigned to specific doses at the beginning of the experiment and received different doses at each session.
(§2) During each session, locomotor activity was quantified via photobeam tracking of distance traveled in cm. Overhead GoPro Hero Black 7 video recordings (120 fps, 960p resolution) were analyzed using a commercially available software package from Clever Sys Inc. (Reston, VA, USA) for the measurement of HTR activity. Mouse body temperature was also collected post-session to calculate temperature change values (basal - post session temperature reading).
(§3) Concentration-response data were fit to a single site non-linear regression model. For the HTR studies, potencies were determined from the ascending limb of the dose-response curves using ED50 potency values from [agonist] vs. response (variable slope, four parameter) least squares fit non-linear regression analyses, whereas efficacy was defined by the top output parameter or Emax from the aforementioned analyses. […] Best-fit values for ED50 and Emax from non-linear regression analyses were compared by extra sum-of-squares F tests. Mean effects for each behavioral endpoint were compared using two-way ANOVA (dose x sex), followed by Sidak’s multiple comparisons post-hoc test. Mean effects for pooled mouse behavioral data were compared via Welch’s ANOVA with Dunnett’s T3 post-hoc test, comparing all doses to saline vehicle controls (0 mg/kg). Alpha was set to 0.05 for all analyses.

C57BL/6J mice [3] = assay: Head twitch response (HTR) in mice; assay type: in vivo, mouse; conditions: for HTR (total events) Mean: 30 min; for ED50: Mus musculus, sc; for HTR ♀ Emax (95% CI) / HTR ♂ Emax (95% CI): top of regression fit
Description: Each drug was tested using groups of 12 mice per sex (i.e., 24 total mice per drug). Experimental sessions were conducted once every 1–2 weeks for 2 months per drug. Experimental sessions were spaced apart by at least 1 week to minimize the potential for tolerance to drug effects (Canal and Morgan [2012]; Darmani et al. [1990a]; de la Fuente Revenga et al. [2022]). Experiments were conducted during the light phase (1300–1700 local time; lights on = 0700 in a 12/12 light/dark cycle).
as §1, §2, §3

C57BL/6J mice [4] = assay: Body temperature change in mice; assay type: in vivo, mouse; conditions: post 30 min session
Description: All mice were injected s.c. with temperature transponders (14 × 2 mm, model IPTT-300, Avidity Science, Waterford Wisconsin, USA) under brief isoflurane immobilization, and were given at least 1 week to recover (Glatfelter et al. [2022b]). Mice were single housed post-implant, and for the duration of the experiments, to protect their devices from being removed by cage mates. Temperature was measured noninvasively using a handheld reader which is sensitive to the transponder signals.
as §1, §2, §3

Structure (SMILES): CN(C)CCc1c[nH]c2cccc(OP(=O)(O)O)c12 [Psilocybin, 4-phosphoryloxy-N,N-dimethyltryptamine]
- ED50 doses inducing HTR in C57BL/6J mice (C57BL/6J mice [1]): 0.22 to 0.40 mg/kg
- Locomotor Activity (cm) Mean (C57BL/6J mice [2]; 0.03 mg/kg s.c., female mice): 2480.4 cm
- Locomotor Activity (cm) Mean (C57BL/6J mice [2]; 0.03 mg/kg s.c., male mice): 2063.8 cm
- Locomotor Activity (cm) Mean (C57BL/6J mice [2]; 0.03 mg/kg s.c., pooled sexes): 2272 cm
- Locomotor Activity (cm) Mean (C57BL/6J mice [2]; 0.1 mg/kg s.c., female mice): 2686.5 cm
- Locomotor Activity (cm) Mean (C57BL/6J mice [2]; 0.1 mg/kg s.c., male mice): 2877.2 cm
- Locomotor Activity (cm) Mean (C57BL/6J mice [2]; 0.1 mg/kg s.c., pooled sexes): 2782 cm
- Locomotor Activity (cm) Mean (C57BL/6J mice [2]; 0.3 mg/kg s.c., female mice): 3293.8 cm
- Locomotor Activity (cm) Mean (C57BL/6J mice [2]; 0.3 mg/kg s.c., male mice): 3064.5 cm
- Locomotor Activity (cm) Mean (C57BL/6J mice [2]; 0.3 mg/kg s.c., pooled sexes): 3179 cm
- Locomotor Activity (cm) Mean (C57BL/6J mice [2]; 1 mg/kg s.c., female mice): 2900.9 cm
- Locomotor Activity (cm) Mean (C57BL/6J mice [2]; 1 mg/kg s.c., male mice): 3532.9 cm
- Locomotor Activity (cm) Mean (C57BL/6J mice [2]; 1 mg/kg s.c., pooled sexes): 3188 cm
- Locomotor Activity (cm) Mean (C57BL/6J mice [2]; 3 mg/kg s.c., female mice): 2041.8 cm
- Locomotor Activity (cm) Mean (C57BL/6J mice [2]; 3 mg/kg s.c., male mice): 2018.9 cm
- Locomotor Activity (cm) Mean (C57BL/6J mice [2]; 3 mg/kg s.c., pooled sexes): 2029 cm
- Locomotor activity effect (C57BL/6J mice [2]; 10 mg/kg s.c.): decreased locomotor activity
- Locomotor Activity (cm) Mean (C57BL/6J mice [2]; 10 mg/kg s.c., female mice): 962.1 cm
- Locomotor Activity (cm) Mean (C57BL/6J mice [2]; 10 mg/kg s.c., male mice): 741.5 cm
- Locomotor Activity (cm) Mean (C57BL/6J mice [2]; 10 mg/kg s.c., pooled sexes): 851.8 cm
- Locomotor activity effect (C57BL/6J mice [2]; 0.3–1 mg/kg s.c.): mild increases in locomotor activity
- HTR (total events) Mean (C57BL/6J mice [3]; 0.03 mg/kg s.c., female mice): 8.0 total events
- HTR (total events) Mean (C57BL/6J mice [3]; 0.03 mg/kg s.c., male mice): 7.6 total events
- HTR (total events) Mean (C57BL/6J mice [3]; 0.03 mg/kg s.c., pooled sexes): 7.8 total events
- HTR (total events) Mean (C57BL/6J mice [3]; 0.1 mg/kg s.c., female mice): 11.8 total events
- HTR (total events) Mean (C57BL/6J mice [3]; 0.1 mg/kg s.c., male mice): 13.0 total events
- HTR (total events) Mean (C57BL/6J mice [3]; 0.1 mg/kg s.c., pooled sexes): 12.4 total events
- HTR (total events) Mean (C57BL/6J mice [3]; 0.3 mg/kg s.c., female mice): 27.3 total events
- HTR (total events) Mean (C57BL/6J mice [3]; 0.3 mg/kg s.c., male mice): 26.8 total events
- HTR (total events) Mean (C57BL/6J mice [3]; 0.3 mg/kg s.c., pooled sexes): 27.1 total events
- HTR (total events) Mean (C57BL/6J mice [3]; 1 mg/kg s.c., female mice): 30.2 total events
- HTR (total events) Mean (C57BL/6J mice [3]; 1 mg/kg s.c., male mice): 39.2 total events
- HTR (total events) Mean (C57BL/6J mice [3]; 1 mg/kg s.c., pooled sexes): 34.7 total events
- HTR (total events) Mean (C57BL/6J mice [3]; 3 mg/kg s.c., female mice): 47.2 total events
- HTR (total events) Mean (C57BL/6J mice [3]; 3 mg/kg s.c., male mice): 29.4 total events
- HTR (total events) Mean (C57BL/6J mice [3]; 3 mg/kg s.c., pooled sexes): 38.3 total events
- HTR (total events) Mean (C57BL/6J mice [3]; 10 mg/kg s.c., female mice): 21.8 total events
- HTR (total events) Mean (C57BL/6J mice [3]; 10 mg/kg s.c., male mice): 18.7 total events
- HTR (total events) Mean (C57BL/6J mice [3]; 10 mg/kg s.c., pooled sexes): 20.3 total events
- ED50 (C57BL/6J mice [3]; female mice, ascending limb of dose-response curve, read-out: HTR ♀ ED50 (95% CI)): 0.31 mg/kg
- ED50 (C57BL/6J mice [3]; male mice, ascending limb of dose-response curve, read-out: HTR ♂ ED50 (95% CI)): 0.17 mg/kg
- ED50 (C57BL/6J mice [3]; pooled male and female mice, read-out: HTR ♂+♀ ED50 (95% CI)): 0.22 mg/kg
- Duration of HTR effect in the session (C57BL/6J mice [3]; peak/active doses, 30 min session): trended to baseline levels by the end of the testing session
- Time of peak effects on HTR post drug administration (C57BL/6J mice [3]; s.c., both sexes, 30 min session): 5 to 10 min
- HTR ♀ Emax (95% CI) (C57BL/6J mice [3]; s.c., female mice): 43 (35–54) HTR events
- HTR ♀ Emax (95% CI) (C57BL/6J mice [3]; s.c., female mice, listed as psilocybin): 43 HTR events
- HTR ♂ Emax (95% CI) (C57BL/6J mice [3]; s.c., male mice): 35 (30–40) HTR events
- HTR ♂ Emax (95% CI) (C57BL/6J mice [3]; s.c., male mice, listed as psilocybin): 35 HTR events
- HTR ♂+♀ Emax (95% CI) (C57BL/6J mice [3]; s.c., pooled male and female mice): 38 (33–47) HTR events
- Body Temp Δ (°C) Mean (C57BL/6J mice [4]; 0.03 mg/kg s.c., female mice): 0.2 °C
- Body Temp Δ (°C) Mean (C57BL/6J mice [4]; 0.03 mg/kg s.c., male mice): -0.4 °C
- Body Temp Δ (°C) Mean (C57BL/6J mice [4]; 0.03 mg/kg s.c., pooled sexes): -0.1 °C
- Body Temp Δ (°C) Mean (C57BL/6J mice [4]; 0.1 mg/kg s.c., female mice): 0.1 °C
- Body Temp Δ (°C) Mean (C57BL/6J mice [4]; 0.1 mg/kg s.c., male mice): 0.3 °C
- Body Temp Δ (°C) Mean (C57BL/6J mice [4]; 0.1 mg/kg s.c., pooled sexes): 0.2 °C
- Body Temp Δ (°C) Mean (C57BL/6J mice [4]; 0.3 mg/kg s.c., female mice): 0.04 °C
- Body Temp Δ (°C) Mean (C57BL/6J mice [4]; 0.3 mg/kg s.c., male mice): 0.1 °C
- Body Temp Δ (°C) Mean (C57BL/6J mice [4]; 0.3 mg/kg s.c., pooled sexes): 0.1 °C
- Body Temp Δ (°C) Mean (C57BL/6J mice [4]; 1 mg/kg s.c., female mice): 0.0 °C
- Body Temp Δ (°C) Mean (C57BL/6J mice [4]; 1 mg/kg s.c., male mice): -1.0 °C
- Body Temp Δ (°C) Mean (C57BL/6J mice [4]; 1 mg/kg s.c., pooled sexes): -0.4 °C
- Body Temp Δ (°C) Mean (C57BL/6J mice [4]; 3 mg/kg s.c., female mice): -1.0 °C
- Body Temp Δ (°C) Mean (C57BL/6J mice [4]; 3 mg/kg s.c., male mice): -1.3 °C
- Body Temp Δ (°C) Mean (C57BL/6J mice [4]; 3 mg/kg s.c., pooled sexes): -1.2 °C
- Body Temp Δ (°C) Mean (C57BL/6J mice [4]; 10 mg/kg s.c., female mice): -3.3 °C
- Body Temp Δ (°C) Mean (C57BL/6J mice [4]; 10 mg/kg s.c., male mice): -4.1 °C
- Body Temp Δ (°C) Mean (C57BL/6J mice [4]; 10 mg/kg s.c., pooled sexes): -3.7 °C
